Reference: patent US8318771B2, “Method of treatment of nephrogenic diabetes insipidus” (Universita' Degli Studi di Bari, priority 2010, dated 2012)

Tests used:
[1] = system: MCD4 cells; experiment: AQP2 localisation on the apical membrane of MCD4 renal cells in culture; assay type: cell-based
Protocol: The MCD4 cells, which are in culture and derive from main cells of the renal collecting duct, were treated experimentally with lovastatin. In the cell model, as in the renal tubule in vivo, the presence of AQP2 on the membrane depends on the presence of vasopressin.
(§1) In MCD4 cells in the absence of lovastatin in the culture medium (-Lovastatin) and in control (ctr) conditions, the AQP2 is stored in intracellular vesicles. […] The FK mimes the effect of the vasopressin in in vitro experiments. The same phenomenon occurs in the tubule in vivo following release into the circulation of vasopressin. […] The lovastatin therefore mimes the effect of the FK or the stimulation with vasopressin. […] It is possible to quantize the effect of the treatment with lovastatin in terms of accumulation of AQP2 on the apical membrane by means of surface protein biotinylation experiments.
In vitro tests performed in MCD4 renal cells indicate that the minimum treatment time with statins able to produce an evident shift of the AQP2 in the cells is 6 hours.

[2] = system: MCD4 cells; experiment: Surface protein biotinylation of apical membrane AQP2 in MCD4 cells (densitometric analysis, FIG. 1); assay type: cell-based; conditions: control set to 100%
Description: as §1
In the absence of lovastatin, only a modest amount of AQP2 is expressed on the apical membrane of the MCD4 cells, and therefore biotinylated, in control cells. The treatment with FK determines an increase of approximately 3 times in the amount of AQP2 expressed on the apical membrane.

## CC[C@H](C)C(=O)O[C@H]1C[C@@H](C)C=C2C=C[C@H](C)[C@H](CC[C@@H]3C[C@@H](O)CC(=O)O3)[C@H]21 [lovastatin]
[1]; MCD4 cells, lovastatin in the medium plus treatment with FK
  increase in the AQP2 on the apical membrane: even more evident
[1]; MCD4 control (ctr) cells, 5 μM lovastatin in the culture medium for 72 h
  AQP2 accumulation on the apical membrane: accumulate a considerable amount of AQP2 on the apical membrane
[2]; 72 h with lovastatin alone
  increase of AQP2 present on the apical membrane (biotinylated): comparable to the one obtained by the FK

## CC(C)c1nc(N(C)S(C)(=O)=O)nc(-c2ccc(F)cc2)c1/C=C/[C@@H](O)C[C@@H](O)CC(=O)O [rosuvastatin]
[1]; MCD4 cells, hydrosoluble formulation
  effect produced by the lovastatin (AQP2 accumulation on the apical membrane) induced by other statins: induced also

## C=C[C@@]1(C)CC(=O)[C@]2(O)[C@@]3(C)[C@@H](O)CCC(C)(C)[C@@H]3[C@H](O)[C@H](OC(C)=O)[C@@]2(C)O1 [forskolin]
[2]; treatment with FK
  increase in the amount of AQP2 expressed on the apical membrane (biotinylated): approximately 3 times
